# Like-named read-outs stand apart in the source and are kept apart here. Ends that are not written are not given here.
# Tests used:
# [1] = system: Listeria monocytogenes LMG10470
# [2] = system: Staphylococcus aureus LMG10147
# [3] = system: Enterococcus faecium LMG16003 (VRE)
# proteinase K = proteinase K (Parengyodontium album, UniProt P06873); assay: Stability against proteinase K (residual antimicrobial activity); settings: 1 mg/mL proteolytic enzyme (pH 7.2), relative antimicrobial activity against L. lactis MG1363, agar well; three biological replicates; Fig. 8B
# proteinase K, sequence (P06873 106-384): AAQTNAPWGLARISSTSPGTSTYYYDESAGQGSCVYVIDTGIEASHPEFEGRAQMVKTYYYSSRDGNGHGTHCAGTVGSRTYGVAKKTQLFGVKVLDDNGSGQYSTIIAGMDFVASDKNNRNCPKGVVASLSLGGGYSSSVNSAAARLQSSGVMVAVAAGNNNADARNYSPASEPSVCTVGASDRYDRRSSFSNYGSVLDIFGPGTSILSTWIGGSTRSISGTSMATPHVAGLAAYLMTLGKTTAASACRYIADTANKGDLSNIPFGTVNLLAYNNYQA
# [4] = system: Lactococcus lactis MG1363
# [5] = system: Listeria monocytogenes LK132
# [6] = system: Listeria monocytogenes TT82E
# [7] = system: Staphylococcus aureus LMG15975 (MRSA)
# [8] = system: Enterococcus faecalis LMG16216 (VRE)
# [9] = Thermal stability (residual antimicrobial activity); assay type: physicochemical
# Protocol: (§1) An overnight culture of test strains was added at 0.1% (vol/vol) into melted GM17 agar at 45°C and poured in plates. After agar solidification, wells of 8 mm were bored and filled with 30 µL of the lantibiotic solution. When necessary, the lantibiotic was activated with 5 µL of nisP added directly into the well. Peptides were resuspended in 0.05% aqueous acetic acid solution and the cesin amount was determined using the NanoDrop (Thermo Scientific) calibrated with the extinction coefficient predicted by ExPASy (http://web.expasy.org/protparam/). The agar plates were incubated at 30°C overnight, after which, the zones of inhibition were measured. Zone diameters were measured in millimeters and recorded as area of the zone (πr^2) minus the area of the well (πr^2) in millimeters. Where necessary, cesin was compared with nisin and nisin(1–22). Assays were performed in triplicate.
# [10] = system: nisin resistance protein (NSR); settings: 30 µL 0.1 mg/mL peptide, agar well, L. lactis NZ9000 (pNSR) vs L. lactis NZ9000 (pEmpty); three biological replicates; Fig. 8A
# [11] = system: Enterococcus faecium LMG11423
# L. lactis MG1363 = assay: Agar well diffusion assay of cesin analogs; assay type: cell-based, Lactococcus lactis; settings: for antimicrobial activity compared to cesin: L. lactis MG1363, 30°C overnight, triplicate, Fig. 5B, 6B, S1
# Protocol: as §1
# E. faecium = assay: Agar well diffusion assay of cesin analogs; assay type: cell-based, Enterococcus faecium; settings: triplicate, Fig. 5B, S1
# Protocol: as §1
# sheep erythrocytes = assay: Hemolytic activity assay; assay type: cell-based; settings: sheep erythrocytes 2% (vol/vol) in PBS, up to 64 µg/mL, 37°C for 40 min, absorbance 420 nm relative to Triton X-100, triplicate; Fig. 9
# Protocol: The hemolytic activity of cesin and nisin was determined as previously described ([65]). Briefly, fresh sheep blood (Sigma-Aldrich) was washed with 0.1 M PBS (pH 7.4; Sigma-Aldrich) three times to remove plasma (500 × g for 5 min), and then the erythrocytes were collected and diluted 1:50 in PBS. The lantibiotics were then added at final concentrations of 64, 32, 16, 8, 4, 2, and 0 µg/mL in PBS to wells containing 2% (vol/vol) washed erythrocytes. The cells were incubated at 37°C for 40 min, then centrifuged for 5 min at 3,100 g. The supernatants were transferred to a 96-well plate, and the absorbance was measured at a wavelength of 420 nm with a Synergy HT microplate reader (BioTek, Lucerne, Switzerland). The absorbance relative to the positive control, which was treated with 0.1% Triton X-100, was defined as the percentage of hemolysis. The analysis was carried out in triplicate.
Compound,MIC [1] [µg/mL],MIC [2] [µg/mL],MIC [3] [µg/mL],MIC [4] [µg/mL],MIC [5] [µg/mL],MIC (Bacillus cereus CH-85) [µg/mL],MIC [6] [µg/mL],MIC [7] [µg/mL],MIC [8] [µg/mL],resistance to the cleavage action of NSR [10],MIC [11] [µg/mL],antimicrobial activity compared to cesin (L. lactis MG1363),antimicrobial activity compared to cesin (E. faecium),other results
C=C1NC(=O)[C@H](Cc2c[nH]c3ccccc23)NC(=O)C(NC(=O)C(=CC)NC(=O)[C@@H](N)[C@@H](C)CC)CSC[C@@H](C(=O)NC2C(=O)N[C@@H](C)C(=O)NCC(=O)N[C@H](C(=O)N[C@H](C(=O)NC3C(=O)NCC(=O)N[C@@H](CCCNC(=N)N)C(=O)N[C@@H]([C@@H](C)CC)C(=O)N[C@@H](CCSC)C(=O)NCC(=O)N[C@H](C(=O)N[C@@H](CC(N)=O)C(=O)N[C@@H](CCCCN)C(=O)O)CSC3C)[C@@H](C)CC)CSC2C)NC(=O)[C@H](CC(C)C)NC1=O (stereo partly shown) [Cesin],2.56,5.13,10.25,0.08,10.25,20.50,5.13,5.13,5.13,fully resistant,5.13,,,"stability against proteinase K (proteinase K): more resistant to proteinase K; thermal stability, time stable [9]: stable for up to 4 h"
"ITSWSLCTAGCITGRIMGCNMKTATCHCSIHVSK (also: bicyclic or more (positions not given here)) [cesin NMK, cesin(1–20)-nisin(21–34) hybrid]",,,,,,,,,,,,significant loss of antimicrobial activity,significant loss of antimicrobial activity,"antimicrobial activity compared to cesin NK (L. lactis MG1363; Fig. 5B (L. lactis MG1363 and E. faecium, sentence names no strain)): significantly higher antimicrobial activity"
C=C(NC(=O)[C@@H](NC(=O)[C@H](Cc1c[nH]cn1)NC(=O)[C@@H](NC(=O)[C@H](CO)NC(=O)[C@@H]1CSC(C)C2NC(=O)[C@H](C)NC(=O)C(NC(=O)[C@H](CCCCN)NC(=O)[C@H](CCSC)NC(=O)[C@H](CC(N)=O)NC(=O)[C@@H]3CSC(C)C(NC(=O)[C@H](CCCCN)NC(=O)[C@@H]4CSC(C)C(NC(=O)[C@@H]5CSCC(NC(=O)C(=CC)NC(=O)[C@@H](N)[C@@H](C)CC)C(=O)N[C@@H]([C@@H](C)CC)C(=O)NC(=C)C(=O)N[C@@H](CC(C)C)C(=O)N5)C(=O)N5CCC[C@H]5C(=O)NCC(=O)N4)C(=O)NCC(=O)N[C@@H](C)C(=O)N[C@@H](CC(C)C)C(=O)N[C@@H](CCSC)C(=O)NCC(=O)N3)C(C)SC[C@H](NC2=O)C(=O)N[C@@H](CC(N)=O)C(=O)N1)[C@@H](C)CC)C(C)C)C(=O)N[C@@H](CCCCN)C(=O)O (stereo partly shown) [Nisin],,,,,,,,,,inactivated,,,,"hemolysis (sheep erythrocytes): comparable to that of nisin; thermal stability, time stable ([9]; incubated at 22°C, 55°C, 75°C, 95°C, read-out antimicrobial activity against L. lactis MG1363 (agar well), three biological replicates, Fig. 7A, B): stable for up to 4 h"
"ITSWSLCTAGCITGRIMGCNKTATCHCSIHVSK (also: bicyclic or more (positions not given here)) [cesin NK, cesin-nisin(23–34) hybrid]",,,,,,,,,,,,significant loss of antimicrobial activity,significant loss of antimicrobial activity,
"C=C1NC(=O)[C@H]([C@@H](C)CC)NC(=O)C(NC(=O)C(=CC)NC(=O)[C@@H](N)[C@@H](C)CC)CSC[C@@H](C(=O)NC2C(=O)N3CCC[C@H]3C(=O)NCC(=O)N[C@H](C(=O)N[C@@H](CCCCN)C(=O)NC3C(=O)NCC(=O)N[C@@H](C)C(=O)N[C@@H](CC(C)C)C(=O)N[C@@H](CCSC)C(=O)NCC(=O)N[C@H](C(=O)N[C@@H](CC(N)=O)C(=O)N[C@@H](CCSC)C(=O)N[C@@H](CCCCN)C(=O)O)CSC3C)CSC2C)NC(=O)[C@H](CC(C)C)NC1=O (stereo partly shown) [Nisin(1–22), reference compound]",41.00,20.50,>41.00,1.28,41.00,>41.00,10.25,20.50,>41.00,,41.00,,,

# From paper PMC10581189, “Cesin, a short natural variant of nisin, displays potent antimicrobial activity against major pathogens despite lacking two C-terminal macrocycles” (Microbiology Spectrum, 2023)
